# From patent publication US20220089609A1, “SUBSTITUTED QUINAZOLINONE DERIVATIVES AND THEIR USE AS POSITIVE ALLOSTERIC MODULATORS OF MGLUR4” (DOMAIN THERAPEUTICS, priority 2018, published 2022)
# Where a name gives a salt, the structure may show the parent alone.
# Biological target: T1, human mGluR4 (hmGluR4) (Homo sapiens, UniProt Q14833)
# T1 construct: expressed in transfected cells; host or cells: HEK-293 cells, transient co-transfection by electroporation
# Assay: Calcium assay EC50 determination, positive allosteric modulator activity on hmGluR4 transiently over-expressed in HEK-293 cells
# Type: cell-based
# Conditions: PAM mode with EC20 glutamate; hmGluR4 in HEK-293 cells; intracellular calcium (Fluo4AM); read-out: mGluR4 positive allosteric modulator activity, half maximal effective concentration (EC50)
# Method in brief: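 HEK-293 cells transiently co-transfected with hmGluR4, chimeric G protein and glutamate transporters; Fluo4AM calcium read (ex 485/em 525 nm) on FLIPR Tetra. Compound alone 10 min for agonism, then EC20 glutamate with 3 min recording for PAM activity, versus buffer or EC20 glutamate basal.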
# T1 sequence (Q14833 33-912): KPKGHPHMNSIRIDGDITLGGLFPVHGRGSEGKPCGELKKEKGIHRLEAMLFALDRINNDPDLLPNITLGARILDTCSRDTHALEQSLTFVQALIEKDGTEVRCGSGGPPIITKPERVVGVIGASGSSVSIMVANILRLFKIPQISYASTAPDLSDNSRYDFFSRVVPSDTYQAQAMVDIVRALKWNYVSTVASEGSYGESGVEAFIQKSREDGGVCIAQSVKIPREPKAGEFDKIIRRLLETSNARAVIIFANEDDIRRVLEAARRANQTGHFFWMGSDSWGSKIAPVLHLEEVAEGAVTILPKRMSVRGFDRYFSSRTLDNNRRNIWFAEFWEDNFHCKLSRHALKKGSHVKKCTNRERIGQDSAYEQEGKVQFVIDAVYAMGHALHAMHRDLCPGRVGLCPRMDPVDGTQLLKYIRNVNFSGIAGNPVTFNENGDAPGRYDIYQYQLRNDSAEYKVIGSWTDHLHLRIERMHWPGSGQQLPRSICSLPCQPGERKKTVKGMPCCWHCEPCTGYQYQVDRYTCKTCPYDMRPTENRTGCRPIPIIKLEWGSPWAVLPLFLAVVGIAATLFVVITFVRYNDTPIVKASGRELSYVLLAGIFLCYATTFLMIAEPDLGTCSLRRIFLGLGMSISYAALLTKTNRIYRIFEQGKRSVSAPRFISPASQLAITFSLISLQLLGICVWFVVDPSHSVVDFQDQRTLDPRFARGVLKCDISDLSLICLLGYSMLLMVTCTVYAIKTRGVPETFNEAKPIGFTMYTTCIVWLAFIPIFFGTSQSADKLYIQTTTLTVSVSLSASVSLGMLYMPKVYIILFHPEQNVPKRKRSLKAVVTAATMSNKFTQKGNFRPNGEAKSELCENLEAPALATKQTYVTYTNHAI
row,EC50 [nM],SMILES
1,≤ 100,"Cc1cc(CN2CCOCC2)cc2c(=O)[nH]c(-c3cc(C(F)(F)F)ccn3)nc12 [Compound 115, 8-methyl-6-(morpholinomethyl)-2-[4-(trifluoromethyl)-2-pyridyl]-3H-quinazolin-4-one hydrochloride]"
2,> 10000,"O=c1[nH]c(-c2cc3cccn3cn2)nc2ccc(OCCN3CCOCC3)cc12 [Compound 33, 6-(2-Morpholin-4-yl-ethoxy)-2-pyrrolo[1,2-c]pyrimidin-3-yl-3H-quinazolin-4-one hydrochloride]"
3,≤ 100,"O=c1[nH]c(-c2cccc(C(F)(F)F)n2)nc2ccc(OCCCc3ccncc3)cc12 [Compound 17, 6-[3-(4-pyridyl)propoxy]-2-[6-(trifluoromethyl)-2-pyridyl]-3H-quinazolin-4-one hydrochloride]"
4,≤ 100,"Cc1cc(OCCCc2ccncc2)cc2c(=O)[nH]c(-c3cc4ccsc4cn3)nc12 [Compound 65, 8-Methyl-6-(3-pyridin-4-yl-propoxy)-2-thieno[2,3-c]pyridin-5-yl-3H-quinazolin-4-one hydrochloride]"
5,100 to 1000,"Cc1cc(OCCC2COC2)cc2c(=O)[nH]c(-c3cc4ccsc4cn3)nc12 [Compound 77, 8-Methyl-6-(2-oxetan-3-yl-ethoxy)-2-thieno[2,3-c]pyridin-5-yl-3H-quinazolin-4-one]"
6,≤ 100,"Cc1cc(N2CCC3(CC2)COC3)cc2c(=O)[nH]c(-c3cc4ccsc4cn3)nc12 [Compound 89, 8-Methyl-6-(2-oxa-7-aza-spiro[3.5]non-7-yl)-2-thieno[2,3-c]pyridin-5-yl-3H-quinazolin-4-one]"
7,≤ 100,"Cc1cc(CC(=O)N2CCOCC2)cc2c(=O)[nH]c(-c3cc4sccc4cn3)nc12 [Compound 126, 8-Methyl-6-(2-morpholino-2-oxoethyl)-2-(thieno[3,2-c]pyridin-6-yl)quinazolin-4(3H)-one]"
8,≤ 100,"Cc1cc(CN2CCC(C(=O)N(C)C)CC2)cc2c(=O)[nH]c(-c3cc4sccc4cn3)nc12 [Compound 156, N,N-Dimethyl-14(8-methyl-4-oxo-2-(thieno[3,2-c]pyridin-6-yl)-3,4-dihydroquinazolin-6-yl)methyl)piperidine-4-carboxamide hydrochloride]"
9,100 to 1000,"Cc1cc(O[C@H](C)C2CCOCC2)cc2c(=O)[nH]c(-c3cc(C(F)(F)F)ccn3)nc12 [Compound 111-R, R-8-Methyl-6-[1-(tetrahydro-pyran-4-yl)-ethoxy]-2-(4-trifluoromethyl-pyridin-2-yl)-3H-quinazolin-4-one]"
10,≤ 100,"Cc1cc(N2CCC3(CCCOC3)C2)cc2c(=O)[nH]c(-c3cc4ccsc4cn3)nc12 (stereo not shown) [Compound 92, 8-Methyl-6-(7-oxa-2-aza-spiro[4.5]dec-2-yl)-2-thieno[2,3-c]pyridin-5-yl-3H-quinazolin-4-one]"
11,100 to 1000,Cc1cc(N2CCC3(CCOCC3)CC2)nc2c(=O)[nH]c(-c3cc4ccsc4cn3)nc12 [Compound 113]
12,≤ 100,"Cc1cc(N2CCC3(CCOCC3)CC2)cc2c(=O)[nH]c(-c3cc4ccsc4cn3)nc12 [Compound 91, 8-Methyl-6-(3-oxa-9-aza-spiro[5.5]undec-9-yl)-2-thieno[2,3-c]pyridin-5-yl-3H-quinazolin-4-one]"
13,100 to 1000,"Cc1cc(CCN2CCCOCC2)cc2c(=O)[nH]c(-c3cnc4sccc4c3)nc12 [Compound 121, 8-Methyl-6-(2-[1,4]oxazepan-4-yl-ethyl)-2-thieno[2,3-b]pyridin-5-yl-3H-quinazolin-4-one hydrochloride]"
14,100 to 1000,"O=c1[nH]c(-c2cc(Br)ccn2)nc2ccc(OCCCc3ccncc3)cc12 [Compound 18, 2-(4-bromo-2-pyridyl)-6-[3-(4-pyridyl)propoxy]-3H-quinazolin-4-one]"
15,100 to 1000,"Cl.O=c1[nH]c(-c2cc3ccsc3cn2)nc2ccc(OCCCc3ccncc3)cc12 [Compound 4, hydrochloride]"
16,100 to 1000,"Cc1cc(NCC(C)(C)O)cc2c(=O)[nH]c(-c3cc4ccsc4cn3)nc12 [Compound 94, 6-(2-Hydroxy-2-methyl-propylamino)-8-methyl-2-thieno[2,3-c]pyridin-5-yl-3H-quinazolin-4-one]"

# Same assay, conditions: up to 100 μM
row,PAM activity on mGluR4,SMILES
1,no PAM activity,"O=c1[nH]c(-c2cccc(C(F)(F)F)c2)nc2ccc(OCCCc3ccncc3)cc12 [Compound 21, 6-[3-(4-pyridyl)propoxy]-2-[3-(trifluoromethyl)phenyl]-3H-quinazolin-4-one hydrochloride]"

# Test system: not given
# Assay: not given
# Conditions: not given
row,melting point [°C],SMILES
1,> 250,"Cc1cnc(-c2nc3ccc(OCCCc4ccncc4)cc3c(=O)[nH]2)cn1 (as salt: hydrochloride) [Compound 13, 2-(5-methylpyrazin-2-yl)-6-[3-(4-pyridyl)propoxy]-3H-quinazolin-4-one dihydrochloride]"
2,> 250,"Cc1cc(CN2CCOCC2)cc2c(=O)[nH]c(-c3cc(C(F)(F)F)ccn3)nc12 (as salt: hydrochloride) [Compound 115, 8-methyl-6-(morpholinomethyl)-2-[4-(trifluoromethyl)-2-pyridyl]-3H-quinazolin-4-one hydrochloride]"
3,215 to 230,"Cc1cc(CN2CCC(C(=O)N(C)C)CC2)cc2c(=O)[nH]c(-c3cc4sccc4cn3)nc12 (as salt: hydrochloride) [Compound 156, N,N-Dimethyl-14(8-methyl-4-oxo-2-(thieno[3,2-c]pyridin-6-yl)-3,4-dihydroquinazolin-6-yl)methyl)piperidine-4-carboxamide hydrochloride]"
4,> 250,"Cc1cc(CN2CCN(C)CC2)cc2c(=O)[nH]c(-c3cc4ccsc4cn3)nc12 (as salt: hydrochloride) [Compound 132, 8-Methyl-6-[(4-methylpiperazin-1-yl)methyl]-2-thieno[2,3-c]pyridin-5-yl-3H-quinazolin-4-one dihydrochloride]"
5,> 250,"Cc1nc(-c2nc3ccc(OCCCc4ccncc4)cc3c(=O)[nH]2)co1 (as salt: hydrochloride) [Compound 22, 2-(2-Methyl-oxazol-4-yl)-6-(3-pyridin-4-yl-propoxy)-3H-quinazolin-4-one hydrochloride]"
6,205 to 215,"COC1CCN(Cc2cc(C)c3nc(-c4cc5sccc5cn4)[nH]c(=O)c3c2)CC1 (as salt: hydrochloride) [Compound 152, 6-[(4-Methoxy-1-piperidyl)methyl]-8-methyl-2-thieno[3,2-c]pyridin-6-yl-3H-quinazolin-4-one hydrochloride]"
7,200 to 210,"COCC1CCN(Cc2cc(C)c3nc(-c4cc5sccc5cn4)[nH]c(=O)c3c2)CC1 (as salt: hydrochloride) [Compound 157, 6-((4-(Methoxymethyl)piperidin-1-yl)methyl)-8-methyl-2-(thieno[3,2-c]pyridin-6-yl)quinazolin-4(3H)-one hydrochloride]"
8,> 250,Cl.O=c1[nH]c(-c2cc3ccsc3cn2)nc2ccc(OCCCc3ccncc3)cc12 [Compound 4]
9,110 to 156,"O=c1[nH]c(-c2cc(C3CC3)ccn2)nc2ccc(OCCCc3ccncc3)cc12 (as salt: hydrochloride) [Compound 19, 2-(4-cyclopropyl-2-pyridyl)-6-[3-(4-pyridyl)propoxy]-3H-quinazolin-4-one dihydrochioride]"
10,> 250,"Cc1cccc(-c2nc3ccc(OCCCc4ccncc4)cc3c(=O)[nH]2)n1 (as salt: hydrochloride) [Compound 12, 2-(6-methyl-2-pyridyl)-6-[3-(4-pyridyl)propoxy]-3H-quinazolin-4-one dihydrochloride]"
11,> 250,"O=c1[nH]c(-c2cc(C(F)(F)F)ccn2)nc2c(Cl)cc(CCN3CCOCC3)cc12 (as salt: hydrochloride) [Compound 154, 8-Chloro-6-(2-morpholinoethyl)-2-(4-(trifluoromethyl)pyridin-2-yl)quinazolin-4(3H)-one hydrochloride]"
12,> 250,"Cc1cc(CCN2CCOCC2)cc2c(=O)[nH]c(-c3cc(C(F)(F)F)ccn3)nc12 (as salt: hydrochloride) [Compound 117, 8-methyl-6-(2-morpholinoethyl)-2-[4-(trifluoromethyl)-2-pyridyl]-3H-quinazolin-4-one hydrochloride]"
13,220 to 240,"Cc1cc(CN2CCOC(C)(C)C2)cc2c(=O)[nH]c(-c3cc4sccc4cn3)nc12 (as salt: hydrochloride) [Compound 153, 6-[(2,2-Dimethylmorpholin-4-yl)methyl]-8-methyl-2-thieno[3,2-c]pyridin-6-yl-3H-quinazolin-4-one hydrochloride]"
14,168 to 173,Cc1cc(CCN2CCOCC2)nc2c(=O)[nH]c(-c3cc(C(F)(F)F)ccn3)nc12.Cl
15,238 to 250,"O=c1[nH]c(-c2cccc(C(F)(F)F)n2)nc2ccc(OCCCc3ccncc3)cc12 (as salt: hydrochloride) [Compound 17, 6-[3-(4-pyridyl)propoxy]-2-[6-(trifluoromethyl)-2-pyridyl]-3H-quinazolin-4-one hydrochloride]"
16,232 to 241,"O=c1[nH]c(-c2cc(Cl)ccn2)nc2ccc(OCCCc3ccncc3)cc12 (as salt: hydrochloride) [Compound 15, 2-(4-chloro-2-pyridyl)-6-[3-(4-pyridyl)propoxy]-3H-quinazolin-4-one hydrochloride]"
17,> 250,"Cc1cc(CCN2CCOCC2)cc2c(=O)[nH]c(-c3cc4cccn4cn3)nc12 (as salt: hydrochloride) [Compound 124, 8-Methyl-6-(2-morpholin-4-yl-ethyl)-2-pyrrolo[1,2-c]pyrimidin-3-yl-3H-quinazolin-4-one hydrochloride]"
